{
  "source": "patent USRE38117E1",
  "about": "“Trioxane dimer compound having antiproliferative and antitumor activities” (Hauser, Inc., priority 1995, dated 2003)",
  "assay_type_in_all_cases": "cell-based",
  "key": {"[1]": {"tested_on": "K-562", "assay": "NCI 60 cell line screen (SRB), Leukemia", "conditions": "K-562 (Leukemia)"}, "[2]": {"tested_on": "MOLT-4", "assay": "NCI 60 cell line screen (SRB), Leukemia"}, "[3]": {"tested_on": "RPMI-8226", "assay": "NCI 60 cell line screen (SRB), Leukemia", "conditions": "RPMI-8226 (Leukemia)"}, "[4]": {"tested_on": "SR", "assay": "NCI 60 cell line screen (SRB), Leukemia"}, "[5]": {"tested_on": "HOP-62", "assay": "NCI 60 cell line screen (SRB), Non-Small Cell Lung Cancer", "conditions": "HOP-62 (Non-Small Cell Lung Cancer)"}, "[6]": {"tested_on": "NCI-H460", "assay": "NCI 60 cell line screen (SRB), Non-Small Cell Lung Cancer"}, "[7]": {"tested_on": "HCT-116", "assay": "NCI 60 cell line screen (SRB), Colon Cancer", "conditions": "HCT-116 (Colon Cancer)"}, "[8]": {"tested_on": "SW-620", "assay": "NCI 60 cell line screen (SRB), Colon Cancer", "conditions": "SW-620 (Colon Cancer)"}, "[9]": {"tested_on": "SF-539", "assay": "NCI 60 cell line screen (SRB), CNS Cancer", "conditions": "SF-539 (CNS Cancer)"}, "[10]": {"tested_on": "LOX IMVI", "assay": "NCI 60 cell line screen (SRB), Melanoma"}, "[11]": {"tested_on": "MALME-3M", "assay": "NCI 60 cell line screen (SRB), Melanoma", "conditions": "MALME-3M (Melanoma)"}, "[12]": {"tested_on": "UACC-62", "assay": "NCI 60 cell line screen (SRB), Melanoma", "conditions": "UACC-62 (Melanoma)"}, "[13]": {"tested_on": "IGROVI", "assay": "NCI 60 cell line screen (SRB), Ovarian Cancer"}, "[14]": {"tested_on": "OVCAR-3", "assay": "NCI 60 cell line screen (SRB), Ovarian Cancer", "conditions": "OVCAR-3 (Ovarian Cancer)"}, "[15]": {"tested_on": "OVCAR-5", "assay": "NCI 60 cell line screen (SRB), Ovarian Cancer", "conditions": "OVCAR-5 (Ovarian Cancer)"}, "[16]": {"tested_on": "OVCAR-8", "assay": "NCI 60 cell line screen (SRB), Ovarian Cancer", "conditions": "OVCAR-8 (Ovarian Cancer)"}, "[17]": {"tested_on": "ACHN", "assay": "NCI 60 cell line screen (SRB), Renal Cancer"}, "[18]": {"tested_on": "CAKI-1", "assay": "NCI 60 cell line screen (SRB), Renal Cancer", "conditions": "CAKI-1 (Renal Cancer)"}, "[19]": {"tested_on": "RXF 393", "assay": "NCI 60 cell line screen (SRB), Renal Cancer", "conditions": "RXF 393 (Renal Cancer)"}, "[20]": {"tested_on": "UO-31", "assay": "NCI 60 cell line screen (SRB), Renal Cancer", "conditions": "UO-31 (Renal Cancer)"}, "[21]": {"tested_on": "PC-3", "assay": "NCI 60 cell line screen (SRB), Prostate Cancer", "conditions": "PC-3 (Prostate Cancer)"}, "[22]": {"tested_on": "MCF7", "assay": "NCI 60 cell line screen (SRB), Breast Cancer"}, "[23]": {"tested_on": "MCF7/ADR-RES", "assay": "NCI 60 cell line screen (SRB), Breast Cancer"}, "[24]": {"tested_on": "MDA-MB231/ATCC", "assay": "NCI 60 cell line screen (SRB), Breast Cancer"}, "[25]": {"tested_on": "MDA-MB-435", "assay": "NCI 60 cell line screen (SRB), Breast Cancer", "conditions": "MDA-MB-435 (Breast Cancer)"}, "[26]": {"tested_on": "BT-549", "assay": "NCI 60 cell line screen (SRB), Breast Cancer", "conditions": "BT-549 (Breast Cancer)"}},
  "data": [
    {"compound": "CC(=O)O[C@H]1C(=O)[C@@]2(C)[C@H]([C@H](OC(=O)c3ccccc3)[C@]3(O)C[C@H](OC(=O)[C@H](O)[C@@H](NC(=O)c4ccccc4)c4ccccc4)C(C)=C1C3(C)C)[C@]1(OC(C)=O)CO[C@@H]1C[C@@H]2O", "note": "[Paclitaxel, paclitaxel, reference compound]", "values": [
      {"measurement": "Log10GI50", "setting": "[1]", "value": "−10.83", "unit": "M"},
      {"measurement": "Log10LC50", "setting": "[1]", "value": ">−4.00", "unit": "M"},
      {"measurement": "Log10TGI", "setting": "[1]", "value": ">−4.00", "unit": "M"},
      {"measurement": "Log10GI50", "setting": "[2]; MOLT-4 (Leukemia)", "value": "−11.07", "unit": "M"},
      {"measurement": "Log10LC50", "setting": "[2]; MOLT-4 (Leukemia)", "value": ">−4.00", "unit": "M"},
      {"measurement": "Log10TGI", "setting": "[2]; MOLT-4 (Leukemia)", "value": ">−4.00", "unit": "M"},
      {"measurement": "drug concentration necessary to achieve primary growth inhibition (percentage growth +50)", "setting": "[2]; MOLT-4, read from dose response curves FIGS. 10a-10e", "value": "less than 10^−8 molar"},
      {"measurement": "Log10GI50", "setting": "[3]", "value": "<−13.00", "unit": "M"},
      {"measurement": "Log10LC50", "setting": "[3]", "value": ">−4.00", "unit": "M"},
      {"measurement": "Log10TGI", "setting": "[3]", "value": ">−4.00", "unit": "M"},
      {"measurement": "Log10LC50", "setting": "[4]", "value": ">−4.00", "unit": "M"},
      {"measurement": "Log10TGI", "setting": "[4]", "value": ">−4.00", "unit": "M"},
      {"measurement": "Log10GI50", "setting": "[5]", "value": "−9.67", "unit": "M"},
      {"measurement": "Log10LC50", "setting": "[5]", "value": "−4.10", "unit": "M"},
      {"measurement": "Log10TGI", "setting": "[5]", "value": "−4.80", "unit": "M"},
      {"measurement": "Log10GI50", "setting": "[6]", "value": "−12.16", "unit": "M"},
      {"measurement": "Log10LC50", "setting": "[6]", "value": ">−4.00", "unit": "M"},
      {"measurement": "Log10TGI", "setting": "[6]", "value": "−4.92", "unit": "M"},
      {"measurement": "Log10GI50", "setting": "[7]", "value": "<−13.00", "unit": "M"},
      {"measurement": "Log10LC50", "setting": "[7]", "value": ">−4.00", "unit": "M"},
      {"measurement": "Log10TGI", "setting": "[7]", "value": "−4.82", "unit": "M"},
      {"measurement": "Log10GI50", "setting": "[8]", "value": "−11.60", "unit": "M"},
      {"measurement": "Log10LC50", "setting": "[8]", "value": ">−4.00", "unit": "M"},
      {"measurement": "Log10TGI", "setting": "[8]", "value": ">−4.00", "unit": "M"},
      {"measurement": "Log10GI50", "setting": "[9]", "value": "−11.09", "unit": "M"},
      {"measurement": "Log10LC50", "setting": "[9]", "value": ">−4.00", "unit": "M"},
      {"measurement": "Log10GI50", "setting": "[10]", "value": "−11.80", "unit": "M"},
      {"measurement": "Log10LC50", "setting": "[10]", "value": ">−4.15", "unit": "M"},
      {"measurement": "Log10TGI", "setting": "[10]", "value": "−4.65", "unit": "M"},
      {"measurement": "Log10LC50", "setting": "[11]", "value": "−4.11", "unit": "M"},
      {"measurement": "Log10TGI", "setting": "[11]", "value": "−4.46", "unit": "M"},
      {"measurement": "Log10GI50", "setting": "[12]", "value": "−10.46", "unit": "M"},
      {"measurement": "Log10LC50", "setting": "[12]", "value": "−4.19", "unit": "M"},
      {"measurement": "Log10TGI", "setting": "[12]", "value": "−4.71", "unit": "M"},
      {"measurement": "Log10GI50", "setting": "[13]", "value": "−8.61", "unit": "M"},
      {"measurement": "Log10LC50", "setting": "[13]", "value": ">−4.00", "unit": "M"},
      {"measurement": "Log10TGI", "setting": "[13]", "value": "−4.19", "unit": "M"},
      {"measurement": "Log10GI50", "setting": "[14]", "value": "−10.40", "unit": "M"},
      {"measurement": "Log10LC50", "setting": "[14]", "value": ">−4.00", "unit": "M"},
      {"measurement": "Log10TGI", "setting": "[14]", "value": "−4.55", "unit": "M"},
      {"measurement": "Log10GI50", "setting": "[15]", "value": "−9.38", "unit": "M"},
      {"measurement": "Log10LC50", "setting": "[15]", "value": ">−4.00", "unit": "M"},
      {"measurement": "Log10TGI", "setting": "[15]", "value": "−4.92", "unit": "M"},
      {"measurement": "Log10GI50", "setting": "[16]", "value": "−10.75", "unit": "M"},
      {"measurement": "Log10LC50", "setting": "[16]", "value": ">−4.00", "unit": "M"},
      {"measurement": "Log10LC50", "setting": "[17]", "value": "−4.45", "unit": "M"},
      {"measurement": "Log10TGI", "setting": "[17]", "value": "−4.90", "unit": "M"},
      {"measurement": "Log10LC50", "setting": "[18]", "value": ">−4.00", "unit": "M"},
      {"measurement": "Log10GI50", "setting": "[19]", "value": "−8.32", "unit": "M"},
      {"measurement": "Log10LC50", "setting": "[19]", "value": ">−4.00", "unit": "M"},
      {"measurement": "Log10TGI", "setting": "[19]", "value": ">−4.00", "unit": "M"},
      {"measurement": "Log10GI50", "setting": "[20]", "value": "−6.09", "unit": "M"},
      {"measurement": "Log10GI50", "setting": "[21]", "value": "−10.85", "unit": "M"},
      {"measurement": "Log10LC50", "setting": "[21]", "value": ">−4.00", "unit": "M"},
      {"measurement": "Log10TGI", "setting": "[21]", "value": ">−4.00", "unit": "M"},
      {"measurement": "Log10GI50", "setting": "[22]", "value": "−11.69", "unit": "M"},
      {"measurement": "Log10LC50", "setting": "[22]", "value": ">−4.00", "unit": "M"},
      {"measurement": "Log10GI50", "setting": "[23]", "value": "−8.48", "unit": "M"},
      {"measurement": "Log10LC50", "setting": "[23]", "value": ">−4.00", "unit": "M"},
      {"measurement": "Log10TGI", "setting": "[23]", "value": ">−4.00", "unit": "M"},
      {"measurement": "Log10GI50", "setting": "[24]", "value": "−8.54", "unit": "M"},
      {"measurement": "Log10TGI", "setting": "[24]", "value": "−4.84", "unit": "M"},
      {"measurement": "Log10GI50", "setting": "[25]", "value": "<−13.00", "unit": "M"},
      {"measurement": "Log10GI50", "setting": "[26]", "value": "−9.31", "unit": "M"},
      {"measurement": "Log10LC50", "setting": "[26]", "value": ">−4.00", "unit": "M"},
      {"measurement": "Log10TGI", "setting": "[26]", "value": "−6.32", "unit": "M"}
    ]}
  ]
}
